pEC50: −log10 of the molar value.
Test system: HEK293 clonal cell line overexpressing APOL1 G1
Assay: APOL1 G1 HEK293 cell rescue assay (Example B3)
Assay type: cell-based
Conditions: Homo sapiens, HEK293, HEK293 clonal line overexpressing APOL1 G1; geometric mean of at least 2 runs; † = single run; ¥ = concentration at 50% rescue estimated (no sigmoidal curve)
How it was run: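 HEK293 clonal line overexpressing APOL1 G1; EC50 is half-maximal reversal of APOL1-induced cell death. Values are the geometric mean of ≥2 runs on separate days, each run the average of duplicate wells. Where no sigmoidal curve could be fitted, the concentration giving 50% rescue was estimated.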

| SMILES | pEC50 |
| --- | --- |
| CC(C)(CO)c1ncc(OCCN2CCC3(CC2)C(=O)Nc2ccc(Cl)cc23)cn1 [Compound 334, 5-chloro-1′-(2-{[2-(1-hydroxy-2-methylpropan-2-yl)pyrimidin-5-yl]oxy}ethyl)-1,2-dihydrospiro[indole-3,4′-piperidin]-2-one] | 6.57 |
| C[C@]1(O)C[C@@H](n2ccc3cc(OCCN4CCC5(CC4)C(=O)Nc4ccc(C(F)F)cc45)cnc32)C1 [Compound 350, 5-(difluoromethyl)-1′-[2-({1-[(cis)-3-hydroxy-3-methylcyclobutyl]-1H-pyrrolo[2,3-b]pyridin-5-yl}oxy)ethyl]-1,2-dihydrospiro[indole-3,4′-piperidin]-2-one] | 7.36 |
| C[C@]1(O)C[C@@H](n2c(=O)oc3cc(OCCN4CCC5(CC4)C(=O)Nc4ccc(Cl)cc45)cnc32)C1 [Compound 394, 5-chloro-1′-[2-({2-oxo-3-[(cis)-3-hydroxy-3-methylcyclobutyl]-2H,3H-[1,3]oxazolo[4,5-b]pyridin-6-yl}oxy)ethyl]-1,2-dihydrospiro[indole-3,4′-piperidin]-2-one] | 7.11 |
| O=C1Nc2ccc(Cl)cc2C12CCN(CCOc1cnc(N3CC4(CC(O)C4)C3)nc1)CC2 [Compound 396, 5-chloro-1′-{2-[(2-{6-hydroxy-2-azaspiro[3.3]heptan-2-yl}pyrimidin-5-yl)oxy]ethyl}-1,2-dihydrospiro[indole-3,4′-piperidin]-2-one] | 7.07 |
| CC(CO)(c1ncc(OCCN2CCC3(CC2)C(=O)Nc2ccc(Cl)cc23)cc1C(F)(F)F)S(C)(=O)=O (stereo not shown) [Compound 401, 5-chloro-1′-(2-{[6-(1-hydroxy-2-methanesulfonylpropan-2-yl)-5-(trifluoromethyl)pyridin-3-yl]oxy}ethyl)-1,2-dihydrospiro[indole-3,4′-piperidin]-2-one] | 7.17 |
| CC(C)(O)c1ncc(OCCN2CCC3(CC2)C(=O)Nc2ccc(C#N)cc23)cc1C(F)(F)F [Compound 411, 1′-(2-{[6-(2-hydroxypropan-2-yl)-5-(trifluoromethyl)pyridin-3-yl]oxy}ethyl)-2-oxo-1,2-dihydrospiro[indole-3,4′-piperidine]-5-carbonitrile] | 7.25 |
| C[C@]1(O)C[C@@H](n2cnc3cc(OCCN4CCC5(CC4)C(=O)Nc4ccc(C#N)cc45)cc(C(F)(F)F)c32)C1 [Compound 433, 1′-(2-((1-((cis)-3-hydroxy-3-methylcyclobutyl)-7-(trifluoromethyl)-1H-benzo[d]imidazol-5-yl)oxy)ethyl)-2-oxospiro[indoline-3,4′-piperidine]-5-carbonitrile] | 7.53 |
| C[C@]1(O)C[C@@H](n2nnc3cc(OCCN4CCC5(CC4)C(=O)Nc4ccc(Cl)cc45)cc(C(F)(F)F)c32)C1 [Compound 434, 5-chloro-1′-[2-({1-[(cis)-3-hydroxy-3-methylcyclobutyl]-7-(trifluoromethyl)-1H-1,2,3-benzotriazol-5-yl}oxy)ethyl]-1,2-dihydrospiro[indole-3,4′-piperidin]-2-one] | 7.83 |
| Cc1nc2cc(OCCN3CCC4(CC3)C(=O)Nc3ccc(Cl)cc34)cc(C(F)(F)F)c2n1[C@H]1C[C@@](C)(O)C1 [Compound 442, 5-chloro-1′-[2-({2-methyl-1-[(cis)-3-hydroxy-3-methylcyclobutyl]-7-(trifluoromethyl)-1H-1,3-benzodiazol-5-yl}oxy)ethyl]-1,2-dihydrospiro[indole-3,4′-piperidin]-2-one] | 7.81 |
| Cc1nc2cc(OCCN3CCC4(CC3)C(=O)Nc3ccc(C#N)cc34)cc(C(F)(F)F)c2n1[C@H]1C[C@@](C)(O)C1 [Compound 443, 1′-[2-({2-methyl-1-[(cis)-3-hydroxy-3-methylcyclobutyl]-7-(trifluoromethyl)-1H-1,3-benzodiazol-5-yl}oxy)ethyl]-2-oxo-1,2-dihydrospiro[indole-3,4′-piperidine]-5-carbonitrile] | 7.51 |

From patent publication US12344610B2, “APOL1 inhibitors and methods of use” (Maze Therapeutics, Inc., priority 2022, dated 2025)
